Measurements from patent publication US10858360B2, “Tricyclic gyrase inhibitors” (priority 2011, dated 2020).
In brackets after ≈: the same amount, converted by molar mass.

Assays:
Assay type in all cases: cell-based
[1] = system: E. coli ATCC 25922; assay: MIC, E. coli ATCC 25922; settings: for MIC: Escherichia coli
[2] = system: Y. pestis CO92 pgm-; assay: microbe, parasite or virus in culture; settings: for MIC Yp: Yp = Y. pestis
[3] = system: P. aeruginosa ATCC 15692; assay: MIC, P. aeruginosa ATCC 15692
[4] = system: S. pneumoniae ATCC 51916; assay: MIC, S. pneumoniae ATCC 51916
[5] = system: S. aureus ATCC 13709; assay: MIC, S. aureus ATCC 13709 (Alamar Blue broth microdilution); settings: for MIC: Staphylococcus aureus
[6] = system: F. tularensis holarctica LVS; assay: microbe, parasite or virus in culture; settings: for MIC Ft: Ft = F. tularensis, strain not given
[7] = system: B. thailandensis ATCC E264; assay: microbe, parasite or virus in culture
[8] = system: A. baumannii ATCC 19606; assay: MIC, A. baumannii ATCC 19606; settings: strain not given
[9] = system: K. pneumoniae ATCC 700603; assay: MIC, K. pneumoniae ATCC 700603; settings: for MIC Kpn: Kpn = K. pneumoniae
[10] = E. coli, Alamar Blue read after overnight incubation at 35° C.
[11] = S. aureus, Alamar Blue read after overnight incubation at 35° C.

Structure (SMILES) | MIC Ec [1, 10] | MIC Ec ([1]; Ec = E. coli, strain not given) | MIC Yp [2] | MIC Pa [3] | MIC Spn [4] | MIC Sa [5, 11] | MIC Sa ([5]; Sa = S. aureus) | MIC Ft [6] | MIC Bt [7] | MIC Ab [8] | MIC Kpn [9] | also measured
CNc1cc(F)cc2c1[nH]c1nc(Oc3cnc(C)nc3)nc(N3CC4CCC(N)C4C3)c12 (centres unmarked) [4.076] | ≤0.5 µg/mL | ≤0.5 µg/mL | ≤0.5 µg/mL | 4 µg/mL (≈ 8.92 µM) | ≤0.5 µg/mL | ≤0.5 µg/mL | ≤0.5 µg/mL | 2 µg/mL (≈ 4.46 µM) | 1 µg/mL (≈ 2.23 µM) | ≤0.5 µg/mL | 4 µg/mL (≈ 8.92 µM) | 
CNc1cc(F)cc2c1[nH]c1nc(Oc3ccc4cncnc4c3)nc(N3CC4CC(N)C4C3)c12 (centres unmarked) [4.365] | ≤0.5 µg/mL | ≤0.5 µg/mL | ≤0.5 µg/mL | 1 µg/mL (≈ 2.13 µM) | ≤0.5 µg/mL | ≤0.5 µg/mL | ≤0.5 µg/mL | 1 µg/mL (≈ 2.13 µM) | ≤0.5 µg/mL | ≤0.5 µg/mL | 4 µg/mL (≈ 8.5 µM) | 
CNc1cc(F)cc2c1[nH]c1nc(Oc3cnc(C)nc3)nc(N3CC(N)C4(CC4)C3)c12 (centres unmarked) [4.069] |  | ≤0.5 µg/mL | ≤0.5 µg/mL | 4 µg/mL (≈ 9.21 µM) | ≤0.5 µg/mL |  | ≤0.5 µg/mL | 2 µg/mL (≈ 4.6 µM) | ≤0.5 µg/mL | ≤0.5 µg/mL | 2 µg/mL (≈ 4.6 µM) | 
CNc1cc(F)cc2c1[nH]c1nc(Oc3cnc4cccnc4c3)nc(N3CC4(CCC4N)C3)c12 (centres unmarked) [4.045] | ≤0.5 µg/mL | ≤0.5 µg/mL | ≤0.5 µg/mL | 4 µg/mL (≈ 8.5 µM) | ≤0.5 µg/mL | ≤0.5 µg/mL | ≤0.5 µg/mL | 2 µg/mL (≈ 4.25 µM) | 1 µg/mL (≈ 2.13 µM) | ≤0.5 µg/mL | 8 µg/mL (≈ 17 µM) | 
CNc1cc(F)cc2c1[nH]c1nc(Oc3cnc4cccnc4c3)nc(N3CC4C(N)C4C3)c12 (centres unmarked) [4.035] |  |  |  |  |  |  |  |  |  |  |  | MIC ([1]; ATCC25922, E. coli, Alamar Blue read after overnight incubation at 35° C.): ≤ 0.5 µg/mL; MIC ([1]; ATCC25922, Ec = E. coli, strain not given): ≤ 0.5 µg/mL; MIC ([2]; Yersinia pestis, CO92PGM, read-out: MIC Yp): ≤ 0.5 µg/mL; MIC ([3]; Pseudomonas aeruginosa, ATCC15692, Pa = P. aeruginosa): 4 µg/mL (≈ 8.76 µM); MIC ([4]; Streptococcus pneumoniae, ATCC51916, Spn = S. pneumoniae): ≤ 0.5 µg/mL; MIC ([5]; ATCC13709, S. aureus, Alamar Blue read after overnight incubation at 35° C.): ≤ 0.5 µg/mL; MIC ([5]; ATCC13709, Sa = S. aureus): ≤ 0.5 µg/mL; MIC ([6]; Francisella tularensis, read-out: MIC Ft): 1 µg/mL (≈ 2.19 µM); MIC ([7]; Burkholderia thailandensis, ATCCE264, read-out: MIC Bt): ≤ 0.5 µg/mL; MIC ([8]; Acinetobacter baumannii, ATCC19606, Ab = A. baumannii): ≤ 0.5 µg/mL; MIC ([9]; Klebsiella pneumoniae, ATCC700603, read-out: MIC Kpn): 2 µg/mL (≈ 4.38 µM)
